Values after ≈ are worked out from the molar mass of the structure shown. Where two headings read alike, the source gives them in different places. Bounds are passed on as bounds.

What all share (type): cell-based
Experiment [1] has as its system freshwater green alga (Selenastrum capricornutum). In words: Inhibition of propagation of freshwater green alga (Example 4). Conditions: after 72 hours, cell number vs non-treated lot; for inhibition at 0.05 ppm: 50ppb, read-out: Propagation inhibiting rate(%) 50ppb; for inhibition at 0.5 ppm: 500ppb, read-out: Propagation inhibiting rate(%) 500ppb. Here is the method:
A predetermined amount of each of the compounds of the invention was dissolved in a culture medium containing 10^5 /ml of a freshwater green alga (Selenastrum capricornutum) at a logarithmic growth phase to prepare samples having a concentration of the compound of the invention in the medium of 500 ppb and 50ppb respectively. The samples were stationary cultured at 23±1 °C for […] under continuous illumination.
After 72 hours, the number of cells was measured using a hemacytometer to obtain propagation rate. The propagation inhibiting rate was calculated from comparison with the non-treated lot.

Experiment [2] relates to Trichophyton mentagrophytes. The settings on record: 72 h, 100 ppm. Here is the method:
31.3 ml of Trichophyton mentagrophytes to be tested was added to 125 ml of a potato dextrose agar culture medium (Nissui Seiyaku Co.). The medium was stirred not to foam the solutions, poured into plates uniformly and solidified.
Thereafter, predetermined amounts of the compounds of the invention were weighted and diluted with acetone to predetermined concentrations.
Paper disks were impregnated with samples containing predetermined amounts of the compounds of the invention, laid on a filter, dried with air and placed on a plate containing test microbe at equal intervals.
Trichophyton mentagrophytes was cultured at 28 °C for 3 days in a thermostatic chamber and the diameter of each inhibiting zone was measured to evaluate the activity of each compound. Symbols in the table mean the followings; • A: Trichophyton mentagrophytes, • ++: strongly inhibiting zone (equal to or more than 21 mm) is observed, • +: inhibiting zone (10 to 20 mm) is observed, • -: no inhibiting zone is observed.

In experiment [3] the test system is Trichophyton mentagrophytes. In words: Agar dilution MIC (Example 2). Conditions: 168 h, agar plate, 27 °C, 7 days. Here is the method:
Series of diluted samples (20000, 10000, 5000, 2500, 2000, 1250, 625, 313, 156, 78, 39, 20, 10, 5, 2.5, 1.25 mg/l) of the compounds of the invention were prepared using dimethylsulfoxide. A sensitive culture medium-N (Nissui Seiyaku Co.) was used for bacteria and a potato dextrose agar culture medium (Nissui Seiyaku Co.) was used for fungi. 0.5 ml of each sample was added to and mixed with 9.5 ml of the culture medium, poured into a Petri dish and solidified to obtain a plate. As a result, the concentration of the compounds of the invention in the agar culture medium were 1000, 500, 250, 125, 100, 62.5, 31.3, 15.6, 7.8, 3.9, 2.0, 1.0, 0.5, 0.25, 0.125, 0.062 mg/l. The bacterium inoculated were cultured in a bouillon for the assay of sensitivity (Nissui Seiyaku Co.) at 37 °C for 20 hours, and the fungi were cultured in the potato dextrose agar culture medium (Nissui Seiyaku Co.) for 10 days and then a 10^6 CFU/ml suspension was prepared from each of them. A test bacteria or fungi suspension was streaked on an agar plate containing the compound of the present invention with platinum wire loop, and the agar plate was cultured at 37±1 °C for 18 to 20 hours for bacteria or at 27 °C for 7 days for fungi. A concentration at which no growth was seen was taken as minimum inhibitory concentration [MIC(mg/l)]. Symbols in the table mean the followings; • A: Bacillus subtilis, • B: Trichophyton mentagrophytes, • C: Rhodotorula mucilaginosa.

Experiment [4] relates to seawater diatom [Nitzschia closterium]. Briefly: Inhibition of propagation of seawater diatom (Example 5). The settings on record: Cylindrotheca closterium, 72 h, read-out: Propagation inhibiting rate(%) 500ppb. Here is the method: A predetermined amount of each of the compounds of the invention was dissolved in culture media containing 10^5 /ml of a seawater diatom [Nitzschia closterium] at a logarithmic growth phase to prepare samples having a concentration of the compound in the medium of 500 ppb. The samples were stationary cultured at 22±1 °C for […] under continuous illumination.
After 72 hours, cells were collected by centrifugation and disrupted by addition of methanol to extract chlorophyll, and the amount of chlorophyll was measured from absorbance using a spectrophotometer to obtain propagation rate. The propagation inhibiting rate was calculated from comparison with the non-treated lot.

Experiment [5] concerns Corynebacterium aquaticum. In words: Agar dilution MIC (Example 3). The settings on record: Leifsonia aquatica, agar plate, 37±1 °C, 18 to 20 hours. Here is the method:
(§1) Series of diluted samples (20000, 10000, 5000, 2500, 1250, 625, 313, 156, 78, 39 mg/l) of the compounds of the invention were prepared using dimethylsulfoxide. A sensitive culture medium-N (Nissui Seiyaku Co.) was used for bacteria and a potato dextrose agar culture medium (Nissui Seiyaku Co.) was used for fungi. 0.5 ml of each sample was added to and mixed with 9.5 ml of the culture medium, poured into a Petri dish and solidified to obtain a plate. As a result, the concentration of the compounds of the invention in the agar culture medium were 1000, 500, 250, 125, 62.5, 31.3, 15.6, 7.8, 3.9, 2.0 mg/l. The bacterium inoculated were cultured in a bouillon for the assay of sensitivity (Nissui Seiyaku Co.) at 37 °C for 20 hours, and the fungi were cultured in the potato dextrose agar culture medium (Nissui Seiyaku Co.) for 10 days and then a 10^6 CFU/ml suspension was prepared from each of them. A test bacteria or fungi suspension was streaked on an agar plate containing the compound of the present invention with platinum wire loop, and the agar plate was cultured at 37±1 °C for 18 to 20 hours for bacteria or at 27 °C for 7 days for fungi. A concentration at which no growth was seen was taken as minimum inhibitory concentration (MIC). Symbols in the tables mean the followings; • A: Bacillus subtilis, • B: Trichophyton mentagrophytes, • C: Staphylococcus aureus, • D: Aspergillus niger, • E: Penicillium funiculosum, • F: Candida albicans, • G: Micrococcus luteus, • H: Corynebacterium aquaticum, • I: Chaetomium globosum, • J: Fusarium moniliforme, • K: Saccharomyces cerevisiae, • L: Rhodotorula rubra, • M: Cladosporium cladosporioides, • N: Alternaria alternata.

Experiment [6] deals with Chaetomium globosum. Briefly: Agar dilution MIC (Example 3). The settings on record: 168 h, agar plate, 27 °C, 7 days. Here is the method: as §1
For experiment [7], the system named is freshwater green alga (Scenedesmus pannonicus). In words: Inhibition of propagation of freshwater algae (Example 6). Conditions: Desmodesmus pannonicus, 500ppb. Here is the method: (§2) A predetermined amount each of the compounds of the invention was dissolved in a culture medium containing 10^5 /ml of a freshwater alga at a logarithmic growth phase to prepare samples having a concentration of the compound of the invention in the medium of 500 ppb and 50 ppb respectively. A shaking culture at 100 rpm was performed for […] under continuous illumination at 20±2 °C for freshwater diatom and at 23±2 °C for other algae.
(§3) After 72 hours and 168 hours, the […] of cells was measured using a hemacytometer to obtain propagation rate. The propagation inhibiting rate was calculated from comparison with the non-treated lot. Symbols in the tables mean the followings; • A: freshwater green alga (Chlorella pyrenoidosa), • B: freshwater blue-green alga (Microcystis aeruginosa), • C: freshwater diatom (Diatoma elongatum), • D: freshwater green alga (Scenedesmus pannonicus).

The test system of experiment [8] is freshwater blue-green alga (Microcystis aeruginosa). The experiment is described as above. The settings on record: 500ppb. Here is the method:
as §2, §3

The test system of experiment [9] is Saccharomyces cerevisiae. In words: Agar dilution MIC (Example 3). Conditions: 168 h, agar plate, 27 °C, 7 days. Here is the method:
as §1

Consider `CN(Cc1ccc(C(C)(C)C)cc1)Cc1cc(Cl)cc(Cl)c1` [Compound 1], for which, in experiment [1], the inhibition at 0.05 ppm worked out at 79% and the inhibition at 0.5 ppm is 94%. Also, in experiment [2], the “Judgment (Target bacteria: A)” value was “++ (strongly inhibiting zone (equal to or more than 21 mm) is observed)”.
In [3], `CCCCCCc1ccc(CN(C)Cc2cccc3ccccc23)cc1` [Compound 36] showed an MIC of 2 mg/L (≈ 5.79 µM). For the same compound, the inhibition at 0.5 ppm in experiment [1] was 83%.
Regarding `Cc1cccc(CN(C)Cc2cccc3ccccc23)c1` [Compound 50], inhibition of growth in experiment [3] (MIC) required 15.6 mg/L (≈ 56.6 µM). Besides, the inhibition at 0.5 ppm in experiment [1] turned out to be 93%.
Taken in the same sequence, the figures for `CN(Cc1ccc(Cl)c(Cl)c1)Cc1cccc2ccccc12` [Compound 37] were 0.5 mg/L (≈ 1.51 µM) and 69%.
In the case of `CC(C)c1ccc(CN(C)Cc2cccc3ccccc23)cc1` [Compound 29], the inhibition at 0.5 ppm in [4] was 76%; in experiment [1], 96%. For the same compound, the inhibition at 0.05 ppm in [1] was found to be 95%. For the same compound, in experiment [2], the “Judgment (Target bacteria: A)” value is given as “++ (strongly inhibiting zone (equal to or more than 21 mm) is observed)”.
In experiment [3], `Cc1ccc(CN(C)Cc2cccc3ccccc23)cc1C` [Compound 41] showed an MIC of 7.8 mg/L (≈ 27 µM). Also, in [1], the inhibition at 0.05 ppm was found to be 66% and the inhibition at 0.5 ppm was determined as 97%.
`CN(Cc1ccc(C(C)(C)C)cc1)Cc1cccc(Cl)c1` [Compound 10] gave an MIC in experiment [3] of 0.25 mg/L (≈ 0.828 µM). Further, in experiment [1], the inhibition at 0.05 ppm worked out at 87% and the inhibition at 0.5 ppm was 95%. In addition, the “Judgment (Target bacteria: A)” value in [2] is reported as “++ (strongly inhibiting zone (equal to or more than 21 mm) is observed)”.
For the compound `COc1cccc(CN(C)Cc2ccc(C(C)(C)C)cc2)c1` [Compound 13], the MIC in experiment [3] was less than 1 mg/L; in experiment [5] it was 63 mg/L (≈ 212 µM). The inhibition at 0.5 ppm in experiment [1] is 92%.
Regarding `CN(Cc1ccc(C(C)(C)C)cc1)Cc1cccc(Cl)c1Cl` [Compound 24], in [3], 0.125 mg/L (≈ 0.372 µM) was the least that counted as inhibitory (MIC). The inhibition at 0.5 ppm in experiment [1] was 85%.
Regarding `CN(Cc1ccc(C(C)(C)C)cc1)Cc1cc(Cl)ccc1Cl` [Compound 22], the lowest concentration to inhibit growth in experiment [3] (MIC) was 1 mg/L (≈ 2.97 µM).
Turning to `CN(Cc1ccc(C(C)(C)C)cc1)Cc1ccc(Cl)cc1Cl` [Compound 18], 1 mg/L (≈ 2.97 µM) was the least that counted as inhibitory in experiment [3] (MIC).
With `CN(Cc1c(Cl)cccc1Cl)Cc1cccc2ccccc12` [Compound 48], the inhibition at 0.5 ppm in [4] and in experiment [1] was 77% in each case.
`CN(Cc1ccc(C(C)(C)C)cc1)Cc1c(F)c(F)c(F)c(F)c1F` [Compound 21] returned an MIC in experiment [3] of 7.8 mg/L (≈ 21.8 µM).
Take `CC(C)Oc1ccc(CN(C)Cc2cccc3ccccc23)cc1` [Compound 47]: the MIC in experiment [3] amounted to 7.8 mg/L (≈ 24.4 µM). Further, in [1], the inhibition at 0.05 ppm was 63% and the inhibition at 0.5 ppm came to 71%.
Regarding `Cc1cccc(CN(C)Cc2ccc(C(C)(C)C)cc2)c1` [Compound 11], the MIC in [3] was less than 1 mg/L; in experiment [5], 63 mg/L (≈ 224 µM); in experiment [6] it was 63 mg/L (≈ 224 µM). Moreover, in experiment [1], the inhibition at 0.05 ppm is 70%. In addition, the inhibition at 0.5 ppm in experiment [1] amounted to 93%.
As for `Cc1ccc(CN(C)Cc2cccc3ccccc23)cc1` [Compound 39], the MIC in experiment [3] was determined as 3.9 mg/L (≈ 14.2 µM). Moreover, in [1], the inhibition at 0.5 ppm amounted to 90%.
Compound `Clc1ccc(CNCc2c(Cl)cccc2Cl)cc1Cl` [Compound 15] gave an MIC in experiment [3] of 3.9 mg/L (≈ 11.6 µM). For the same compound, the inhibition at 0.5 ppm in experiment [7] (72hr, read-out: Propagation inhibiting rate (%) 500ppb 72hr) is 95%; in experiment [7] (168hr, read-out: Propagation inhibiting rate (%) 500ppb 168hr) it was 98%; in [8] (72hr, read-out: Propagation inhibiting rate(%) 500ppb 72hr), 92%; in [8] (168hr, read-out: Propagation inhibiting rate(%) 500ppb 168hr), 100%; in experiment [1], 94%.
Consider `CN(Cc1ccc(C(C)(C)C)cc1)Cc1c(Cl)ccc(Cl)c1Cl` [Compound 33], for which the MIC in experiment [3] worked out at 1 mg/L (≈ 2.7 µM).
`CN(Cc1cc(Cl)cc(Cl)c1)Cc1cccc2ccccc12` [Compound 40]: in [1], the inhibition at 0.05 ppm came out at 61% and the inhibition at 0.5 ppm stood at 61%.
Consider `CN(Cc1ccc(C#N)cc1)Cc1cccc2ccccc12` [Compound 46], for which the MIC in [3] was determined as 15.6 mg/L (≈ 54.5 µM). In addition, in experiment [1], the inhibition at 0.5 ppm was 96%.
Taken in the same sequence, the figures for `CN(Cc1ccc(F)c(F)c1)Cc1cccc2ccccc12` [Compound 45] were 15.6 mg/L (≈ 52.5 µM) and 87%.
For the compound `CN(Cc1ccc(Cl)c(Cl)c1)C1CCc2ccccc21` (centres unmarked) [Compound 25], the MIC in [3] came to 15.6 mg/L (≈ 50.9 µM). Moreover, the inhibition at 0.5 ppm in [1] worked out at 95%.
With `CN(Cc1ccc(C(C)(C)C)cc1)C1CCOc2ccccc21` (centres unmarked) [Compound 26], the MIC in [3] came to 1 mg/L (≈ 3.23 µM).
Regarding `COc1ccc(CN(C)Cc2cccc3ccccc23)cc1` [Compound 38], the MIC in experiment [3] stood at 7.8 mg/L (≈ 26.8 µM). Further, the inhibition at 0.5 ppm in [1] stood at 75%.
Taken in the same sequence, the figures for `CN(Cc1ccc(C(C)(C)C)cc1)Cc1ccccc1Cl` [Compound 17] were 1 mg/L (≈ 3.31 µM) and 83%.
Take `CN(Cc1ccc(C(C)(C)C)cc1)Cc1cccc(C(F)(F)F)c1` [Compound 12]: the MIC was less than 1 mg/L in experiment [3], 125 mg/L (≈ 373 µM) in experiment [6] and 125 mg/L (≈ 373 µM) in experiment [9]. The inhibition at 0.5 ppm in [1] is 90%.
As for `CCCOc1ccc(CN(C)Cc2cccc3ccccc23)cc1` [Compound 51], in experiment [3], the MIC was found to be 15.6 mg/L (≈ 48.8 µM).

The values are drawn from patent EP1059033A1, “INDUSTRIAL ANTIBACTERIAL/ANTIFUNGAL AGENTS, ALGICIDES AND ANTI-BIOLOGICAL ADHESION AGENTS CONTAINING BENZYLAMINES” (Nissan Chemical Industries, Ltd., priority 1998, dated 1999).
